Data reported in patent US10815264B2, “Nucleotides for the treatment of cancer” (IDENIX PHARMACEUTICALS LLC, priority 2015, dated 2020).
Like-named read-outs stand apart in the source and are kept apart here. Values belong to the compound of their own block, whether it stands above or below them.

How the values were obtained:
[1] = system: live leukemic cells of AML patient samples (bone marrow or peripheral blood); test: Ex-vivo effect on AML patient samples, depletion of live leukemic cells by flow cytometry; assay type: cell-based, human; details: plates incubated for 48 hours
Procedure: Patient samples were obtained from a non-interventional and prospective study. The study included samples from adult patients over 18 years of age who were diagnosed with Acute Myeloid Leukemia (AML).
In one embodiment, the method of data acquisition was performed as follows: on day 1 bone marrow (BM) or peripheral blood (PB) patient sample was received. A small part was separated from the rest of the sample for validation, while the majority of the sample was diluted with culture media and plated into 96-well plates previously prepared with the desired compounds and compound combinations, e.g., a compound or compound combination described herein. The number of live leukemic cells seeded in each well was fixed between 8000 and 32000, depending on the percentage of leukemic cells for each sample. […] Antibodies were added to identify leukemic cells using a gating strategy based on FSC/SSC and expression or lack of expression of different surface markers. The monoclonal antibodies selection was performed to optimize the identification of leukemic cell in each sample.
In one embodiment, non-limiting examples of biomarkers such as the biomarkers CD34, CD45, CD117, and HLADR known as “backbone markers” for AML (van Dongen, J. J. and A. Orfao, EuroFlow: Resetting leukemia and lymphoma immunophenotyping. Basis for companion diagnostics and personalized medicine, Leukemia, 2012, 26, 1899-907) were included in the combination.
In one embodiment, antibody combinations such as CD117/CD45, CD34/CD45, and HLADR/CD45 were used. Live leukemic cells were identified by their light scatter properties (FSC^int/hi/SSC^int) in the absence of Annexin-V-FITC staining. FSC/SSC selection was performed to exclude debris. The average percentage of cell viability upon receipt of the sample was 80% and samples were only processed if the viability was greater than 50%.
In one embodiment, sample validation was performed as follows: BM and PB samples were extracted under sterile conditions and received in the laboratory within 24 hours of extraction. Initial analysis evaluated the number of pathological cells and their viability. Different volumes of sample (1 μL, 3 μL, 5 μL and 7 μL) were aliquoted in duplicate into a 96-well plate. To lyse red blood cells, 180 μL of ammonium chloride lysis solution was added to each well (2 g KHCO3, 16.58 g NH4Cl, 0.074 g Na2EDTA.2H2O, H2O to 1 L). Following a 10 min incubation period at 4° C., plate was centrifuged for 5 min at 1200 rpm and the supernatant removed. The lysis step was performed twice. To analyze, 20 μL of a combination of Annexin V-FITC (Immunostep, Salamanca, Spain), binding buffer (BB, 2.4 g HEPES, 8.19 g NaCl, 0.37 g Cl2Ca, H2O to 1 L), and the following monoclonal antibodies (mAb) were added to each well: CD117 (clone 104D2)-PE (Becton Dickinson, San Jose, Calif., US), CD34 (clone 581)-PerCP (BioLegend, San Diego, Calif., US), HLADR (clone L243)-PB (BioLegend) and CD45 (HI30)-PO (Life Technologies, Carlsbad, Calif., US) (van Dongen, J. J., et al., EuroFlow antibody panels for standardized n-dimensional flow cytometric immunophenotyping of normal, reactive and malignant leukocytes, Leukemia, 2012, 26, 1908-75). After 15 min of incubation at room temperature in the dark, a wash step was performed using binding buffer solution. The pellet was resuspended in 30 μL BB for analysis in Vivia's ExviTech© platform. Cell count and viability upon arrival were computed and the optimal volume of sample to use per well was determined.
In one embodiment, the assay was performed according to following method: the whole sample was diluted with RPMI 1640, supplemented with 20% (v/v) FBS (Thermo Scientific, Waltham, Mass., US), 2% HEPES, 1% antibiotic (Zell Shield, Labclinics, Barcelona, Spain) and 1% L-glutamine 200 mM (Lonza, Hopkinton, Mass., US) to a final volume of 60 μL per well. […]

[2] = system: CCRF-CEM; test: In vitro inhibition, CellTiter-Glo (CTG) assay, 72 hr exposure; assay type: cell-based
Procedure: (§1) Cells were grown in RPMI-1640 supplemented with L-Glutamine and 10% FBS of the following cell lines:
(§2) CCRF-CEM; CCRF-CEM-cytarabine resistant; HL-60; K562; CFPAC-1; MiaPACA-2; BxPC-3; PANC-1; HepG2; MDA-MB-231; HCT-116; A498; and NCI-H69
(§3) 18, 96 well plates of each cell line were seeded with the optimized number of cells per well in a total volume of 50 μL per well. The plates were left overnight. Plate wells were seeded with 100 μL media for media control. The following day, cells were exposed to test compounds as described below. At the same time as drug exposure, a CTG assay was conducted on the 18th plate for the 0 hr count.
(§4) The compounds were added to cells and medium already on the plate to give desired final concentrations. 50 μL media were added to cell control wells, and 50 μL of mix added to vehicle control wells. 10 μM Doxorubicin was added to appropriate wells. Cells exposed to test compound were incubated at 37° C. for 72 hr followed by a CTG assay.
(§5) At the end of the 72 hr exposure period, plates were removed for a CellTiter-Glo (CTG) assay from a 37° C., 5% CO2 incubator and placed on the bench at room temperature for 30 mins. 100 μL of CellTiter-Glo reagent was added and mixed for 2 mins, followed by a further 10 min incubation at room temperature. Luminescence was recorded using Synergy 4.0.

[3] = system: CFPAC-1; test: as above; assay type: cell-based
Procedure: as §1, §2, §3, §4, §5

[4] = system: A498; test: as above; assay type: cell-based
Procedure: as §1, §2, §3, §4, §5

[5] = system: HepG2; test: as above; assay type: cell-based
Procedure: as §1, §2, §3, §4, §5

[6] = system: HCT-116; test: as above; assay type: cell-based
Procedure: as §1, §2, §3, §4, §5

[7] = system: PANC-1; test: as above; assay type: cell-based; details: PANC-1, 72 hr
Procedure: as §1, §2, §3, §4, §5

[8] = system: BxPC-3; test: as above; assay type: cell-based
Procedure: as §1, §2, §3, §4, §5

[9] = system: CCRF-CEM-cytarabine resistant; test: as above; assay type: cell-based
Procedure: as §1, §2, §3, §4, §5

[10] = system: HL-60; test: as above; assay type: cell-based
Procedure: as §1, §2, §3, §4, §5

[11] = system: NCI-H69; test: as above; assay type: cell-based
Procedure: as §1, §2, §3, §4, §5

[12] = system: MiaPACA-2; test: as above; assay type: cell-based
Procedure: as §1, §2, §3, §4, §5

[13] = system: MDA-MB-231; test: as above; assay type: cell-based; details: MDA-MB-231, 72 hr
Procedure: as §1, §2, §3, §4, §5

[14] = system: K562; test: as above; assay type: cell-based; details: K562, 72 hr
Procedure: as §1, §2, §3, §4, §5

[15] = Homo sapiens, MIA PaCa-2, MiaPACA-2, 72 hr

- EC50 ([1]; Homo sapiens, 48 h): ≥ 20 µM
Compound: CC(=O)OC[C@H](C)NP1(=O)OC[C@H]2S[C@@H](n3ccc(N)nc3=O)[C@@H](O)C2O1 (some centres unmarked)
- Emax ([1]; Homo sapiens, 48 h): > 20%

- IC50 ([2]; Homo sapiens, 72 h): 10 to 100 µM
- IC50 ([5]; Homo sapiens, HepG2, 72 h): 10 to 100 µM
- IC50 ([6]; Homo sapiens, HCT-116, 72 h): 10 to 100 µM
- IC50 ([7]; Homo sapiens): 10 to 100 µM
- IC50 ([8]; Homo sapiens, BXPC-3, 72 h): 10 to 100 µM
- IC50 [9]: 10 to 100 µM
- IC50 ([10]; Homo sapiens, HL-60, 72 h): 10 to 100 µM
- IC50 ([11]; Homo sapiens, NCI-H69, 72 h): 10 to 100 µM
- IC50 [12, 15]: 10 to 100 µM
- IC50 ([13]; Homo sapiens): 10 to 100 µM
- IC50 ([14]; Homo sapiens): 10 to 100 µM
Compound: Cn1c(COP(=O)(NCc2ccccc2)O[C@H]2[C@H](O)[C@H](n3ccc(N)nc3=O)S[C@@H]2CO)cnc1[N+](=O)[O-] (mixture of isomers) [Compound 106b (mixture of diastereoisomers), 4-amino-1-[(2R,3S,4S,5R)-4-[(benzylamino)-[(3-methyl-2-nitro-imidazol-4-yl)methoxy]phosphoryl]oxy-3-hydroxy-5-(hydroxymethyl)tetrahydrothiophen-2-yl]pyrimidin-2-one]
- IC50 ([3]; Homo sapiens, CFPAC-1, 72 h): 10 to 100 µM
- IC50 ([4]; Homo sapiens, A498, 72 h): 10 to 100 µM

Compound: CC(C)OC(=O)[C@H](C)NP(=O)(OC[C@H]1S[C@@H](n2ccc(N)nc2=O)[C@@H](O)[C@@H]1O)Oc1ccccc1 (single isomer, unassigned) [Compound 101b (diastereoisomer 1)]
- IC50 [2]: < 1 µM
- IC50 ([3]; CFPAC-1, 72 hr): 10 to 100 µM
- IC50 ([4]; Homo sapiens, A498, 72 hr): 10 to 100 µM
- IC50 ([5]; HepG2, 72 hr): 10 to 100 µM
- IC50 ([6]; HCT-116, 72 hr): 10 to 100 µM
- IC50 ([7]; Homo sapiens): 10 to 100 µM
- IC50 ([8]; BxPC-3, 72 hr): 10 to 100 µM
- IC50 [9]: 10 to 100 µM
- IC50 ([10]; HL-60, 72 hr): 1 to 10 µM
- IC50 ([11]; Homo sapiens, NCI-H69, 72 hr): 10 to 100 µM
- IC50 ([12]; MiaPACA-2, 72 hr): 10 to 100 µM
- IC50 ([13]; Homo sapiens): 10 to 100 µM
- IC50 [14]: 10 to 100 µM

Compound: CC(C)OC(=O)[C@H](C)NP(=O)(OC[C@H]1S[C@@H](n2ccc(N)nc2=O)[C@@H](O)[C@@H]1O)Oc1ccccc1 (single isomer, unassigned) [Compound 101b (diastereoisomer 2)]
- IC50 ([2]; Homo sapiens): < 1 µM
- IC50 ([3]; Homo sapiens, CFPAC-1, 72 hr): 10 to 100 µM
- IC50 ([4]; A498, 72 hr): 10 to 100 µM
- IC50 ([5]; HepG2, 72 hr): 1 to 10 µM
- IC50 ([6]; HCT-116, 72 hr): 1 to 10 µM
- IC50 [7]: 10 to 100 µM
- IC50 ([8]; Homo sapiens, BxPC-3, 72 hr): 10 to 100 µM
- IC50 [9]: 1 to 10 µM
- IC50 ([10]; Homo sapiens, HL-60, 72 hr): 1 to 10 µM
- IC50 ([11]; NCI-H69, 72 hr): 10 to 100 µM
- IC50 ([12]; MiaPACA-2, 72 hr): 1 to 10 µM
- IC50 [13]: 10 to 100 µM
- IC50 ([14]; Homo sapiens): 10 to 100 µM

- IC50 ([2]; Homo sapiens, 72 h): < 1 µM
- IC50 ([5]; HepG2, 72 hr): 1 to 10 µM
- IC50 ([6]; Homo sapiens, HCT-116, 72 h): 10 to 100 µM
- IC50 ([7]; Homo sapiens): 10 to 100 µM
- IC50 ([8]; Homo sapiens, BXPC-3, 72 h): 10 to 100 µM
- IC50 [9]: 10 to 100 µM
- IC50 ([10]; Homo sapiens, HL-60, 72 h): 1 to 10 µM
- IC50 ([11]; Homo sapiens, NCI-H69, 72 h): 10 to 100 µM
- IC50 [12, 15]: 10 to 100 µM
- IC50 ([13]; Homo sapiens): 10 to 100 µM
- IC50 ([14]; Homo sapiens): 10 to 100 µM
Compound: CCOC(=O)COP(=O)(N[C@@H](CC(C)C)C(=O)OCC)OC[C@H]1S[C@@H](n2ccc(N)nc2=O)[C@@H](O)[C@@H]1O (single isomer, unassigned) [Compound 102b (diastereoisomer 1)]
- IC50 ([3]; Homo sapiens, CFPAC-1, 72 h): 10 to 100 µM
- IC50 ([4]; Homo sapiens, A498, 72 h): 10 to 100 µM

Compound: CC(C)OC(=O)[C@H](C)NP(=O)(OC[C@H]1S[C@@H](n2ccc(N)nc2=O)[C@@H](O)[C@@H]1O)Oc1ccccc1 (single isomer, unassigned) [drawing 47]
- EC50 ([1]; Homo sapiens, 48 h): ≥ 20 µM
- Emax ([1]; Homo sapiens): 0 to 10%

Compound: CC(C)OC(=O)[C@H](C)NP(=O)(OC[C@H]1S[C@@H](n2ccc(N)nc2=O)[C@@H](O)[C@@H]1O)Oc1ccccc1 (single isomer, unassigned) [drawing 48]
- EC50 [1]: 10 to 20 µM
- Emax (%) [1]: A (A=0-10%)

- EC50 [1]: 10 to 20 µM
Compound: CCOC(=O)COP(=O)(N[C@@H](CC(C)C)C(=O)OCC)OC[C@H]1S[C@@H](n2ccc(N)nc2=O)[C@@H](O)[C@@H]1O (single isomer, unassigned) [drawing 50]
